# Where “and” joins values, the source holds several entries; their conditions need not be identical. Equal values may be shown once.
# Columns and labels:
# [1] = Hydrolytic half-life of AB23A in human plasma; type: in vitro ADME; conditions: human plasma (25% diluted); 25% dilution human plasma, PBS pH 7.4; read-out: t1/2 (hydrolytic/metabolic half-life)
# Description: (§1) The hydrolytic half-lives (t1/2) of AB23A in human plasma and different human tissue preparations were carried out according to the procedure of in vitro metabolic stability studies ([Ge et al., 2013]). The incubation mixture (1,000 μL) consisted of PBS (pH 7.4), enzyme sources (HLMs/HIMs/human plasma) and AB23A. 25% diluted human plasma was used, the protein concentrations of other tissue microsomes were 0.1 mg/mL. The 100 μL incubation mixture was moved to another containing ice-cold acetonitrile tube at different time points (0, 5, 15, 30, 45, 60, 90, 120 min). All samples were centrifuged for 30 min at 20,000 g 4°C and took the supernatants for LC-UV analysis.
# (§2) The incubation conditions were as follows: the classic incubation system included 100 mM potassium phosphate buffer (PBS, pH 7.4), enzyme sources, and AB23A. In all incubations, PBS and enzyme sources were pre-incubation at 37 °C for 3 min and the reaction was started by adding AB23A (the organic solvent content at most 1%). After reacting 1 h, ice-cold acetonitrile was added to terminate the reaction and precipitate proteins. The samples were centrifuged for 30 min at 20000 × g, 4 °C, and the supernatants were taken for further LC-UV analysis.
# [2] = Hydrolytic half-life of AB23A in rat liver microsomes; type: in vitro ADME; conditions: rat liver microsomes (RLMs), pH 7.4, RLMs 0.10 mg/mL, read-out: T1/2 (hydrolytic half-life)
# Description: as §1, §2
# [3] = Hydrolytic half-life of AB23A in mouse liver microsomes; type: in vitro ADME; conditions: mouse liver microsomes (MLMs), pH 7.4, MLMs 0.10 mg/mL, read-out: T1/2 (hydrolytic half-life)
# hBchE [4] = biological target: T1, hBchE (Homo sapiens, UniProt P06276); experiment: Kinetic analysis of AB23A hydrolysis in hBchE; type: in vitro ADME; conditions: 1 h incubation
# T1 construct: purchased Sigma-Aldrich Lot SLCG5158
# T1 sequence (P06276 29-602): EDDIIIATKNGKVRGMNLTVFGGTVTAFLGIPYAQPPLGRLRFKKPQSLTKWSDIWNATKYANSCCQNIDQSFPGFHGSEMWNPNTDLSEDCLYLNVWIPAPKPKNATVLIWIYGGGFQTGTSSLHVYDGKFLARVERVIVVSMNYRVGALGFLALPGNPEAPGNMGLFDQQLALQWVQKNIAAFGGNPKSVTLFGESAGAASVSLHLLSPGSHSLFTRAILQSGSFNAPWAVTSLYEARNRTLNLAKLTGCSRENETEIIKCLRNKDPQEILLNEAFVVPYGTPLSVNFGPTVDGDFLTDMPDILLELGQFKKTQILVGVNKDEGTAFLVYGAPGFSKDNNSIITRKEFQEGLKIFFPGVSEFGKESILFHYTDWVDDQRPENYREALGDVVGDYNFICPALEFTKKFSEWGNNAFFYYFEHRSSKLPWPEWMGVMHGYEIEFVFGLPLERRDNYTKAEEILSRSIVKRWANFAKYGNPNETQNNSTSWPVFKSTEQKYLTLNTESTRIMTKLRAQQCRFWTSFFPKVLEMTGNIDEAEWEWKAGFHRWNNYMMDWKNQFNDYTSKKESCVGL
# Description: (§3) The enzymatic kinetics of AB23A hydrolysis in different tissue preparations (HLMs, HIMs, human plasma) and human recombinant enzymes (hCES1A, hCES2A, hSA, hBchE) were analyzed. The incubation system (200 μL) consisted of PBS, each tested enzyme, and AB23A (ranging from 0 to 1,000 μM). After incubating for 1 h, the supernatants were then used for LC-UV analysis. The kinetic parameters of AB23A hydrolysis were fitted by the following Michaelis−Menten Eq. 1 ([Zhang et al., 2022]). V=(Vmax×[S])⁄(Km+[S]) (1) Here, K m is the Michaelis constant of AB23A hydrolysis, V max is the maximum velocity of AB23A hydrolysis, V max /K m is used to calculate the intrinsic clearance (CL int ).
# [5] = Kinetic analysis of AB23A hydrolysis in HIMs; type: in vitro ADME, human
# Description: as §3
# hBchE [6] = biological target: T1, hBchE; experiment: Reaction phenotyping assay of AB23A hydrolysis, hBchE; type: in vitro ADME; conditions: hBchE 5 μg/mL, AB23A 20 μM, 60 min, pH 7.4 at 37°C
# Description: (§4) The hydrolytic rates of AB23A in different human recombinant enzymes (hCES1A, hCES2A, hPL, hIAH1, hNotum, hAchE, hBchE, hSA, hCTSA, hMAGL) were assayed. The incubation system included PBS, each tested enzyme (5 μg/mL, final concentration), and AB23A (20 μM). After incubation for 1 h at 37°C, ice-cold acetonitrile was added to terminate the reaction and precipitate proteins. The supernatants by centrifuging were used to quantify the formation rates of AB by LC-UV analysis. The detection wavelength of AB was 196 nm.
# hCES2A = biological target: T2, hCES2A (Homo sapiens, UniProt O00748); experiment: Reaction phenotyping assay of AB23A hydrolysis, hCES2A; type: in vitro ADME; conditions: hCES2A 5 μg/mL, AB23A 20 μM, 60 min, pH 7.4 at 37°C
# T2 construct: 10xHis; made in house; host or cells: HEK293-F cells, pTT5 vector, purified from conditioned medium
# T2 sequence (O00748 27-559): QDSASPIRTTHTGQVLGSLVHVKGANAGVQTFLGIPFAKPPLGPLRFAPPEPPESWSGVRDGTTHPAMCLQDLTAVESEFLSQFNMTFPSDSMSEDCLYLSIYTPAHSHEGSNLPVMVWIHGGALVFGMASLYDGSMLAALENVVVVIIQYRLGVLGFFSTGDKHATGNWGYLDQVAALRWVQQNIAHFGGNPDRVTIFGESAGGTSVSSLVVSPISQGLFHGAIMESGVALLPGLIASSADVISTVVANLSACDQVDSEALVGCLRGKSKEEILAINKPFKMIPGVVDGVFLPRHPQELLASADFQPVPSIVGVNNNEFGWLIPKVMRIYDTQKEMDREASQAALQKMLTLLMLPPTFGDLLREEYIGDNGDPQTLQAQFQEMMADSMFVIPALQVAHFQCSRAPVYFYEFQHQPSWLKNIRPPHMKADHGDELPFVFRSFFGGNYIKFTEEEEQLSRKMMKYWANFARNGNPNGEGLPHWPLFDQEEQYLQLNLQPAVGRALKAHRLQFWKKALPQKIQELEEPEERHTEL
# Description: as §4
# hCES1A = biological target: T3, hCES1A (Homo sapiens, UniProt P23141); experiment: Reaction phenotyping assay of AB23A hydrolysis, hCES1A; type: in vitro ADME; conditions: hCES1A 5 μg/mL, AB23A 20 μM, 60 min, pH 7.4 at 37°C
# T3 construct: 10xHis; made in house; host or cells: HEK293-F cells, pTT5 vector, purified from conditioned medium
# T3 sequence (P23141 18-563): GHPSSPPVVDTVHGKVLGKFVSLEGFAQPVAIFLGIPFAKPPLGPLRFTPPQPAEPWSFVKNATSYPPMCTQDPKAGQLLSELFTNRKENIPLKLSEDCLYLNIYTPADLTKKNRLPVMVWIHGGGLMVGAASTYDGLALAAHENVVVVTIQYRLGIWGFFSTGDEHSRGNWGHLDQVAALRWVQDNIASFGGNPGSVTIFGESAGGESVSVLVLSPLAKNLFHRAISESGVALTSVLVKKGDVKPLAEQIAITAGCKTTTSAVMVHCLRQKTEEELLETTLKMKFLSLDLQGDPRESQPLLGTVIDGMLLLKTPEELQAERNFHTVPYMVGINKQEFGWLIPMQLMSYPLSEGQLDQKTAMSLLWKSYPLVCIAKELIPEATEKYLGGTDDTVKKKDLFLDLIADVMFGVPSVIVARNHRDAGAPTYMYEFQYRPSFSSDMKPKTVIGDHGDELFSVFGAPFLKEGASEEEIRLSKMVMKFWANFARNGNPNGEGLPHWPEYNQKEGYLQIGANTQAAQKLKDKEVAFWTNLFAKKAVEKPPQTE
# Description: as §4
compound,measurement,setting,value
"CC(=O)O[C@H](C[C@@H](C)C1=C2C[C@H](O)C3[C@@]4(C)CCC(=O)C(C)(C)C4CC[C@]3(C)[C@@]2(C)CC1)[C@H]1OC1(C)C (stereo partly drawn) [AB23A, Alisol B 23-acetate]",half-life,[1],115 ± 0.2 min
same,half-life,[2],55.63 ± 0.11 min
same,half-life,[3],2.3 ± 0.01 min
same,K m of AB23A hydrolysis,hBchE [4],35.78 ± 3.40 µM
same,K m of AB23A hydrolysis,[5],164.00 ± 18.63 µM
same,V max of AB23A hydrolysis,[5],2.93 ± 0.10 nmol/min/mg protein and 2.93 ± 0.10 ^a nmol/min/mg protein
same,Hydrolytic rate (formation of AB) in reaction phenotyping,hBchE [6],faster hydrolytic rate
same,Hydrolytic rate (formation of AB) in reaction phenotyping,hCES2A,also catalyzed this hydrolytic reaction
same,Hydrolytic rate (formation of AB) in reaction phenotyping,hCES1A,also catalyzed this hydrolytic reaction

# Source: article PMC10117764, “The roles of serine hydrolases and serum albumin in alisol B 23-acetate hydrolysis in humans” (Frontiers in Pharmacology, 2023)
